# Assay results: PMC6259843 (Molecules, 2011)
# Target: T1, pancreatic α-amylase (Sus scrofa, UniProt P00690)
# T1 construct: gene AMY2
# T1 sequence (P00690 16-511): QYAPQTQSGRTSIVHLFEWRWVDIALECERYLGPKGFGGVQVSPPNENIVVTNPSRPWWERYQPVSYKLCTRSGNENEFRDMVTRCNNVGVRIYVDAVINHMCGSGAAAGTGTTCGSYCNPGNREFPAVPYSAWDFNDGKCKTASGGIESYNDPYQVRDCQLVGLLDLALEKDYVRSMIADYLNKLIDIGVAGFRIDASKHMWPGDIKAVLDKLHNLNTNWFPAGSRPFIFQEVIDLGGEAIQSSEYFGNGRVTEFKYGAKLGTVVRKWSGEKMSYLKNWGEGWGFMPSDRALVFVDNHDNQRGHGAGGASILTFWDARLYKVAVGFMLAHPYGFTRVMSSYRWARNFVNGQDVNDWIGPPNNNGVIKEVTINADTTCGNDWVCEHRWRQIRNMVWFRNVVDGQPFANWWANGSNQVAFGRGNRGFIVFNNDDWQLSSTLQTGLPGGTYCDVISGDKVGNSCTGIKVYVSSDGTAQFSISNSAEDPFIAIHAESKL
# Assay: starch hydrolysis inhibition assay with DNS readout at […] nm; Lineweaver-Burk kinetics
# Format: biochemical
structure (smiles),measurement,value
"C[C@@H]1O[C@@H](OC[C@H]2O[C@@H](Oc3cc4c(O)cc(O)cc4[o+]c3-c3ccc(O)c(O)c3)[C@H](O)[C@@H](O)[C@@H]2O)[C@H](O)[C@H](O)[C@H]1O [C3R, Cyanidin-3-rutinoside]",IC50,24.4 ± 0.1 µM
